Reference: ChEMBL document CHEMBL4052645, “Discovery of potent and efficacious pyrrolopyridazines as dual JAK1/3 inhibitors” (Bioorg Med Chem Lett, 2017)

Columns and labels:
[1] = target: Serine/threonine-protein kinase pim-2 (Homo sapiens) (UniProt Q9P1W9); assay: Inhibition of wild-type human partial length PIM2 (M1 to E291 residues) expressed in bacterial expression system assessed as residual activity at 50 nM by Kinomescan method relative to control
[2] = target: Serine/threonine-protein kinase N2 (Homo sapiens) (UniProt Q16513); assay: Inhibition of human PKN2 (E634 to C948 residues) expressed in bacterial expression system assessed as residual activity at 50 nM by KINOMEscan assay relative to control
[3] = target: Mitogen-activated protein kinase 11 (Homo sapiens) (UniProt Q15759); assay: Inhibition of wild-type human full length p38-beta (M1 to Q364 residues) expressed in bacterial expression system assessed as residual activity at 50 nM by Kinomescan method relative to control
[4] = target: Activin receptor type-1-like (Homo sapiens) (UniProt P37023); assay: Inhibition of wild-type human ALK1 (L164 to Q503 residues) expressed in bacterial expression system assessed as residual activity at 50 nM by Kinomescan method relative to control
[5] = target: STE20/SPS1-related proline-alanine-rich protein kinase (Homo sapiens) (UniProt Q9UEW8); assay: Inhibition of wild-type human partial length STLK3 (P43 to I357 residues) expressed in mammalian expression system assessed as residual activity at 50 nM by Kinomescan method relative to control
[6] = target: RAC-gamma serine/threonine-protein kinase (Homo sapiens) (UniProt Q9Y243); assay: Inhibition of wild-type human partial length AKT3 expressed in bacterial expression system assessed as residual activity at 50 nM by Kinomescan method relative to control
[7] = target: Activin receptor type-2B (Homo sapiens) (UniProt Q13705); assay: Inhibition of wild-type human ACTR2B (H169 to D504 residues) expressed in bacterial expression system assessed as residual activity at 50 nM by Kinomescan method relative to control
[8] = target: Cyclin-dependent kinase 16 (Homo sapiens) (UniProt Q00536); assay: Inhibition of wild-type human partial length PCTAIRE1 (G160 to A474 residues) expressed in mammalian expression system assessed as residual activity at 50 nM by Kinomescan method relative to control
[9] = target: Serine/threonine-protein kinase MRCK beta (Homo sapiens) (UniProt Q9Y5S2); assay: Inhibition of human MRCKB (L56 to S417 residues) expressed in bacterial expression system assessed as residual activity at 50 nM by KINOMEscan assay relative to control
[10] = target: Serine/threonine-protein kinase RIO2 (Homo sapiens) (UniProt Q9BVS4); assay: Inhibition of wild-type human partial length RIOK2 (M1 to D313 residues) expressed in mammalian expression system assessed as residual activity at 50 nM by Kinomescan method relative to control
[11] = target: Calcium/calmodulin-dependent protein kinase type II subunit beta (Homo sapiens) (UniProt Q13554); assay: Inhibition of wild-type human partial length CAMK2B (M1 to Q380 residues) expressed in bacterial expression system assessed as residual activity at 50 nM by Kinomescan method relative to control
[12] = target: Serine/threonine-protein kinase D2 (Homo sapiens) (UniProt Q9BZL6); assay: Inhibition of wild-type human partial length PKD2 (A519 to E838 residues) expressed in bacterial expression system assessed as residual activity at 50 nM by Kinomescan method relative to control
[13] = target: Serine/threonine-protein kinase MRCK gamma (Homo sapiens) (UniProt Q6DT37); assay: Inhibition of wild-type human partial length DMPK2 (S46 to S408 residues) expressed in bacterial expression system assessed as residual activity at 50 nM by Kinomescan method relative to control
[14] = target: Non-receptor tyrosine-protein kinase TYK2 (Homo sapiens, UniProt P29597); assay: Inhibition of wild-type human partial length TYK2 JH2 pseudokinase domain (G556 to D888 residues) expressed in mammalian expression system assessed as residual activity at 50 nM by Kinomescan method relative to control
[15] = target: Dual specificity tyrosine-phosphorylation-regulated kinase 2 (Homo sapiens) (UniProt Q92630); assay: Inhibition of wild-type human full length DYRK2 (M1 to S528 residues) expressed in mammalian expression system assessed as residual activity at 50 nM by Kinomescan method relative to control
[16] = target: Serine/threonine-protein kinase PLK1 (Homo sapiens) (UniProt P53350); assay: Inhibition of wild-type human partial length PLK1 (A33 to F325 residues) expressed in mammalian expression system assessed as residual activity at 50 nM by Kinomescan method relative to control
[17] = target: Ephrin type-A receptor 1 (Homo sapiens) (UniProt P21709); assay: Inhibition of wild-type human partial length EPHA1 (V588 to I913 residues) expressed in bacterial expression system assessed as residual activity at 50 nM by Kinomescan method relative to control
[18] = target: Interferon-induced, double-stranded RNA-activated protein kinase (Homo sapiens) (UniProt P19525); assay: Inhibition of wild-type human partial length PKR (F247 to C551 residues) expressed in bacterial expression system assessed as residual activity at 50 nM by Kinomescan method relative to control
[19] = target: Vascular endothelial growth factor receptor 1 (Homo sapiens) (UniProt P17948); assay: Inhibition of wild-type human partial length FLT1 (R781 to F1239 residues) expressed in bacterial expression system assessed as residual activity at 50 nM by Kinomescan method relative to control
[20] = target: Glycogen synthase kinase-3 alpha (Homo sapiens) (UniProt P49840); assay: Inhibition of wild-type human full length GSK3A (M1 to S483 residues) expressed in bacterial expression system assessed as residual activity at 50 nM by Kinomescan method relative to control
[21] = target: Casein kinase I isoform gamma-2 (Homo sapiens) (UniProt P78368); assay: Inhibition of wild-type human full length CK1G2 (M1 to K415 residues) expressed in bacterial expression system assessed as residual activity at 50 nM by Kinomescan method relative to control
[22] = target: Cyclin-dependent kinase 5 (Homo sapiens) (UniProt Q00535); assay: Inhibition of wild-type human full length CDK5 (M1 to P292 residues) expressed in bacterial expression system assessed as residual activity at 50 nM by Kinomescan method relative to control
[23] = target: Ephrin type-A receptor 3 (Homo sapiens) (UniProt P29320); assay: Inhibition of wild-type human partial length EPHA3 (D604 to K889 residues) expressed in bacterial expression system assessed as residual activity at 50 nM by Kinomescan method relative to control
[24] = target: Serine/threonine-protein kinase ICK (Homo sapiens) (UniProt Q9UPZ9); assay: Inhibition of wild-type human partial length ICK (M1 to P314 residues) expressed in mammalian expression system assessed as residual activity at 50 nM by Kinomescan method relative to control
[25] = target: Phosphatidylinositol 4,5-bisphosphate 3-kinase catalytic subunit beta isoform (Homo sapiens) (UniProt P42338); assay: Inhibition of wild-type human partial length PI3KCB (P118 to S1070 residues) expressed in mammalian expression system assessed as residual activity at 50 nM by Kinomescan method relative to control

Sequence of Serine/threonine-protein kinase ICK (Homo sapiens) (Q9UPZ9 whole entry, the tested form may be a part, canonical isoform): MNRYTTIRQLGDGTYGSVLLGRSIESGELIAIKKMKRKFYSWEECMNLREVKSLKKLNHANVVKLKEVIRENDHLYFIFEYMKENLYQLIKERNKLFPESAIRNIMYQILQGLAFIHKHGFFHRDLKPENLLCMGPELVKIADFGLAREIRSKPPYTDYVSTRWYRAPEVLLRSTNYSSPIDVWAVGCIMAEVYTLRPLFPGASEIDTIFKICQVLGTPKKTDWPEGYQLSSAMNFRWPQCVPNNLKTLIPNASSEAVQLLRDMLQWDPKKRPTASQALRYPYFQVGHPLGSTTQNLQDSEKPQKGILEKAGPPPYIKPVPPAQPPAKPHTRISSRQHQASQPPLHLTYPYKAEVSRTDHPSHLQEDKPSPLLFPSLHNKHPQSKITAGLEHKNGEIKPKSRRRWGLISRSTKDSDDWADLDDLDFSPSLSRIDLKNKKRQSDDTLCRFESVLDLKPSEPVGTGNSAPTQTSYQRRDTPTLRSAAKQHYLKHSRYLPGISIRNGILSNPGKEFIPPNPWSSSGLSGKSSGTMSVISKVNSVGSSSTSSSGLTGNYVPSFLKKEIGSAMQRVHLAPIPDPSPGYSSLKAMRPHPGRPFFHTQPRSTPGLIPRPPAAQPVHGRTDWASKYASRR
Sequence of Casein kinase I isoform gamma-2 (Homo sapiens) (P78368 whole entry, looked up, the tested form may be a part, canonical isoform): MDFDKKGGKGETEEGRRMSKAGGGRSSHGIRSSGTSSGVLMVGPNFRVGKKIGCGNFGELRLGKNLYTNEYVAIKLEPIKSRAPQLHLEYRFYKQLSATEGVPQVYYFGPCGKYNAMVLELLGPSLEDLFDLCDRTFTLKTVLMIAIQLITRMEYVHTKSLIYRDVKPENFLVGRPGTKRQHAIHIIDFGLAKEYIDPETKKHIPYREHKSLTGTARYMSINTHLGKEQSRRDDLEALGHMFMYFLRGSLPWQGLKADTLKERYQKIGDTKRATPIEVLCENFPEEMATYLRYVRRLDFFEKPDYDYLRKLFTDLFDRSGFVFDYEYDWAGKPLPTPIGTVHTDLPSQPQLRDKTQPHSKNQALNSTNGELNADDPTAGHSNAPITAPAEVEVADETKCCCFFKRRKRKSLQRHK
Sequence of Glycogen synthase kinase-3 alpha (Homo sapiens) (P49840 2-483 limits assumed): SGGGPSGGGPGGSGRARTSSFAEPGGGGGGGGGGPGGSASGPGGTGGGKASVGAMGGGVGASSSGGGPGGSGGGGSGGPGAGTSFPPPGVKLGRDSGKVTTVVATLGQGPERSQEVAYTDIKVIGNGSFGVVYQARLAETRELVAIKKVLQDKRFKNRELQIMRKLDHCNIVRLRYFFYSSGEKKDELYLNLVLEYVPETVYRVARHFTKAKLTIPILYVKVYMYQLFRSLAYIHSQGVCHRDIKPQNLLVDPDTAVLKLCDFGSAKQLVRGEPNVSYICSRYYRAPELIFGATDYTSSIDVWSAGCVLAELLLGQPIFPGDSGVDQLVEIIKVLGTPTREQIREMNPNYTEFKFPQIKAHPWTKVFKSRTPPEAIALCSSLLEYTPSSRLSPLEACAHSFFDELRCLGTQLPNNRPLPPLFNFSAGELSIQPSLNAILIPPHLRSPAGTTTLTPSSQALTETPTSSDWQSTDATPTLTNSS
Sequence of Interferon-induced, double-stranded RNA-activated protein kinase (Homo sapiens) (P19525 whole entry, the tested form may be a part): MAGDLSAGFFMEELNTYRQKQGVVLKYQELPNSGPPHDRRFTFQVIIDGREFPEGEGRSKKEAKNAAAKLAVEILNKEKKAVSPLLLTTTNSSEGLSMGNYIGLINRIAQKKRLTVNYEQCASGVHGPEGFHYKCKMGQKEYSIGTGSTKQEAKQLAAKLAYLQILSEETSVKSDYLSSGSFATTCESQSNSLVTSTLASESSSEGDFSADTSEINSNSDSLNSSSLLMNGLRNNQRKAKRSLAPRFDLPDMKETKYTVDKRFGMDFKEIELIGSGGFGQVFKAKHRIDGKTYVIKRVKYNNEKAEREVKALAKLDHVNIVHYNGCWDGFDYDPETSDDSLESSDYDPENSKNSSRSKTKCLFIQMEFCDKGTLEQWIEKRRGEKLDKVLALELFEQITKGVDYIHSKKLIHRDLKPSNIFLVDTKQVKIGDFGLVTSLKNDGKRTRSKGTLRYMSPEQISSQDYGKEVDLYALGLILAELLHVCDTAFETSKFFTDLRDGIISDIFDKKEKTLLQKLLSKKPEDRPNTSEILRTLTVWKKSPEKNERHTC
Sequence of Serine/threonine-protein kinase RIO2 (Homo sapiens) (Q9BVS4 whole entry, looked up, the tested form may be a part): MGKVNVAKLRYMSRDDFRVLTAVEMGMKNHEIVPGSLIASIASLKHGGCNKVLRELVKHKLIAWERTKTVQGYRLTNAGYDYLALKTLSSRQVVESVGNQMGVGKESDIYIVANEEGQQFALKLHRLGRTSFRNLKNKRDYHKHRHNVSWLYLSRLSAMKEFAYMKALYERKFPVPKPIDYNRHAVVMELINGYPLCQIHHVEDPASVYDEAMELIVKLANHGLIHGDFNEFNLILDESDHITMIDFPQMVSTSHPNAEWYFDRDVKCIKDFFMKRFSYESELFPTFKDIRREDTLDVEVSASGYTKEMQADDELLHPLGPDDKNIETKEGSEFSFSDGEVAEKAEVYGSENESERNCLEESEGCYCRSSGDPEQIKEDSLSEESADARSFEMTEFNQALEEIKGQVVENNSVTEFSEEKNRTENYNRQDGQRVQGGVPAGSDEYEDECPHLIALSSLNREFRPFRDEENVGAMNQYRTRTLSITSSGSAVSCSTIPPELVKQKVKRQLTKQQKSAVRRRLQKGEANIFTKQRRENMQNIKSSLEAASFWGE
Sequence of Cyclin-dependent kinase 5 (Homo sapiens) (Q00535 whole entry, looked up, the tested form may be a part): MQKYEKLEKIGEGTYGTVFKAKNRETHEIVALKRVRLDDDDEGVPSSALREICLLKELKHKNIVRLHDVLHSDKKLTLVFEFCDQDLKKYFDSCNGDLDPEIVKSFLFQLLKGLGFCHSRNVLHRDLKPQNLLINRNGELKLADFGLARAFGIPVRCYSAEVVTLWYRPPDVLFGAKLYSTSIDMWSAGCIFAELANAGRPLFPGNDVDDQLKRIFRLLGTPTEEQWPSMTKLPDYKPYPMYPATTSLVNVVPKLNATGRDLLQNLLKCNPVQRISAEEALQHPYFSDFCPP
Sequence of Serine/threonine-protein kinase D2 (Homo sapiens) (Q9BZL6 whole entry, the tested form may be a part): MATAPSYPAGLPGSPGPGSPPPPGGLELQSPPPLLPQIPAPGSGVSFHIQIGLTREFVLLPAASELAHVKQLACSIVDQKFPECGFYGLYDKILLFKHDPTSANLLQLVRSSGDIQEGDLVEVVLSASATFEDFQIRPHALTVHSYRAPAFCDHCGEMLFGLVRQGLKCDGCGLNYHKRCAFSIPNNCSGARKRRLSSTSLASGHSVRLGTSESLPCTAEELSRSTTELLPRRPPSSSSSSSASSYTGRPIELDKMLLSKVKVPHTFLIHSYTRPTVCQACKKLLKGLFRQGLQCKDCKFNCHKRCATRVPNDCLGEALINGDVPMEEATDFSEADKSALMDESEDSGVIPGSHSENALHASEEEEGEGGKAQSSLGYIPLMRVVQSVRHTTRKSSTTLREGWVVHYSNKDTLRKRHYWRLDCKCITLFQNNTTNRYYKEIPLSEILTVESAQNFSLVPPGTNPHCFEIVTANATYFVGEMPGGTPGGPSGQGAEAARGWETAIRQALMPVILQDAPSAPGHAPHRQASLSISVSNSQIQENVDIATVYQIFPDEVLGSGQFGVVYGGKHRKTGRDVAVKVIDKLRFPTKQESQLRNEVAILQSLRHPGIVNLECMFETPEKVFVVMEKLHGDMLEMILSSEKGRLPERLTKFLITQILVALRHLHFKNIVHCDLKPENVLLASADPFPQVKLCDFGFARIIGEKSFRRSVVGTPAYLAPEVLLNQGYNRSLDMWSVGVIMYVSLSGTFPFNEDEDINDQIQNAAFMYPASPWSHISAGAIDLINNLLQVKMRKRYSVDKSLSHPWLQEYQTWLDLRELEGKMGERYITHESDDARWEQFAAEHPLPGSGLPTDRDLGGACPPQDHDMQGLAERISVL
Sequence of Serine/threonine-protein kinase N2 (Homo sapiens) (Q16513 whole entry, looked up, the tested form may be a part): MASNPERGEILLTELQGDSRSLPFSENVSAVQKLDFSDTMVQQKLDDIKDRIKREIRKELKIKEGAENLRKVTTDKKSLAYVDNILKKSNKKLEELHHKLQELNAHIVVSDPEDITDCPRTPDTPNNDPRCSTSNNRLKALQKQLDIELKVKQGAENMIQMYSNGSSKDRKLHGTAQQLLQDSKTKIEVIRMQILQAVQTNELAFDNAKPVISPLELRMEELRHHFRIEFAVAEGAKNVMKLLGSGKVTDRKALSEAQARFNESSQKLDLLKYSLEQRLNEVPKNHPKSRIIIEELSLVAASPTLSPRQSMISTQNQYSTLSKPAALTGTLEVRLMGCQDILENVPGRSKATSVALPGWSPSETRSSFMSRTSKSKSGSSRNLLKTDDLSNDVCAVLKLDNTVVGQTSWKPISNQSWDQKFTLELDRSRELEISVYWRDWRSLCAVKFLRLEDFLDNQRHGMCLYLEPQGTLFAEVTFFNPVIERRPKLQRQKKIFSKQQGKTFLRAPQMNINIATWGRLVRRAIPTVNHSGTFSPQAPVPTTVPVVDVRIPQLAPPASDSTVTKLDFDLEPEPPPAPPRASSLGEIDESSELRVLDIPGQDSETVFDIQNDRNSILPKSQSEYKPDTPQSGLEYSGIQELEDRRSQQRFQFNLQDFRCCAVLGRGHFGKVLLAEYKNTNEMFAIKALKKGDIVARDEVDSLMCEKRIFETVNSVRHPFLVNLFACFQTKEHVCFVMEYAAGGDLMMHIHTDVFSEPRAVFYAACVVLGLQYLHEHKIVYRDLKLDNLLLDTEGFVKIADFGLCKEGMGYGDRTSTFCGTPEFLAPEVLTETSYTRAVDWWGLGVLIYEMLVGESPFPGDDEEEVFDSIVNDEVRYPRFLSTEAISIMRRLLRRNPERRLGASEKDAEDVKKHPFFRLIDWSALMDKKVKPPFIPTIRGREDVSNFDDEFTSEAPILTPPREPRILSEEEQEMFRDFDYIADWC

| Structure (SMILES) | Activity [1] [%] | Activity [2] [%] | Activity [3] [%] | Activity [4] [%] | Activity [5] [%] | Activity [6] [%] | Activity [7] [%] | Activity [8] [%] | Activity [9] [%] | Activity [10] [%] | Activity [11] [%] | Activity [12] [%] | Activity [13] [%] | Activity [14] [%] | Activity [15] [%] | Activity [16] [%] | Activity [17] [%] | Activity [18] [%] | Activity [19] [%] | Activity [20] [%] | further results |
| --- | --- | --- | --- | --- | --- | --- | --- | --- | --- | --- | --- | --- | --- | --- | --- | --- | --- | --- | --- | --- | --- |
| COc1ccc(-c2cc3c(N[C@@H]4CC[C@](C)(N)C4(C)C)c(C(N)=O)cnn3c2)cn1 | 100 | 27 | 80 | 100 | 84 | 100 | 100 | 89 | 82 | 99 | 92 | 100 | 97 | 100 | 100 | 100 | 93 | 99 | 90 | 100 | Activity [21]: 82%; Activity [22]: 92%; Activity [23]: 88%; Activity [24]: 100%; Activity [25]: 100% |
| CC1(C)[C@H](Nc2c(C(N)=O)cnn3cc(-c4ccccc4)cc23)CC[C@]1(C)N | 100 | 3 | 78 | 100 | 100 | 100 | 67 | 100 | 29 | 50 | 78 | 100 | 37 | 100 | 100 | 94 | 80 | 100 | 100 | 65 | Activity [21]: 100%; Activity [22]: 94%; Activity [23]: 65%; Activity [24]: 64%; Activity [25]: 100% |
